Measurements published in patent US8163718B2, “Nucleoside analogues containing phosphonate or phosphonamide groups” (Gilead Sciences, Inc., priority 2008, dated 2012).

Columns and labels:
Test in all cases: Cytostatic cell culture assay (GI50), SRB
Format in all cases: cell-based
A549 = conditions: Homo sapiens, A549, 120 h; 5 days incubation
Outline: (§1)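 Growth inhibition is measured by SRB protein staining following a 5-day incubation at 37 °C with compound serially diluted 5-fold. The percentage of control growth is computed as (OD sample − mean OD day 0)/(OD untreated − mean OD day 0) × 100, and GI50 values are derived from dose-response curves.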

BT-549 = conditions: Homo sapiens, BT-549, 120 h; 5 days incubation
Outline: as §1

HCT-116 = conditions: Homo sapiens, HCT-116, 120 h; 5 days incubation
Outline: as §1

PC3 = conditions: Homo sapiens, PC-3, 120 h; 5 days incubation
Outline: as §1

Du-145 = conditions: Homo sapiens, DU-145, 120 h; 5 days incubation
Outline: as §1

Hs-578 = conditions: Hs578, 120 h; 5 days incubation
Outline: as §1

NCI-H23 = conditions: Homo sapiens, NCI-H23, 120 h; 5 days incubation
Outline: as §1

HCT-15 = conditions: Homo sapiens, HCT-15, 120 h; 5 days incubation
Outline: as §1

GI50 (A549): 0.128 µM | GI50 (BT-549): 0.033 µM | GI50 (HCT-116): 0.041 µM | GI50 (PC3): 0.026 µM | GI50 (Du-145): 0.002 µM | GI50 (NCI-H23): 0.002 µM | GI50 (HCT-15): 6.7 µM
Compound: CCCOc1nc(N)nc2c1ncn2CCOCP(=O)(N1CCC[C@H]1C(=O)OCC)N1CCC[C@H]1C(=O)OCC [Example 21]
GI50 (Hs-578): 0.017 µM
